Assay results from the supplement of paper PMC12370961.

Tests used:
Test in all cases: differential drug sensitivity score (dDSS) relative to sarcoma reference cohort mean DSS (DSS units (0-100 scale difference)); higher = more selective sensitivity than reference sarcomas
Conditions in all cases: exposure time: 72 h; concentration range: 10-10000 nM
CDS-ZH001 = test system: CDS-ZH001 (patient-derived CIC-DUX4 sarcoma tumoroid)
Protocol: (§1)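 Drug response profiling of patient-derived Ewing sarcoma and CIC::DUX4 sarcoma tumoroid models (or cells tested directly after isolation from the tumor, 'direct'). The DSS is the normalised AUC (0-100); dDSS is the sample DSS minus the mean DSS of a 34-sarcoma reference cohort profiled in the same lab.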

CDS-ZH001-2 = test system: CDS-ZH001-2 (patient-derived CIC-DUX4 sarcoma tumoroid)
Protocol: as §1

ES-ZH004 = test system: ES-ZH004 (patient-derived Ewing sarcoma tumoroid)
Protocol: as §1

CDS-ZH002 = test system: CDS-ZH002 (patient-derived CIC-DUX4 sarcoma tumoroid)
Protocol: as §1

ES-ZH002 = test system: ES-ZH002 (patient-derived Ewing sarcoma tumoroid)
Protocol: as §1

ES-ZH001 = test system: ES-ZH001 (patient-derived Ewing sarcoma tumoroid)
Protocol: as §1

ES-ZH007 = test system: ES-ZH007 (patient-derived Ewing sarcoma tumoroid)
Protocol: as §1

ES-ZH016 direct = test system: ES-ZH016 direct (Ewing sarcoma cells right after isolation)
Protocol: as §1

CDS-ZH003 = test system: CDS-ZH003 (patient-derived CIC-DUX4 sarcoma tumoroid)
Protocol: as §1

ES-ZH008 = test system: ES-ZH008 (patient-derived Ewing sarcoma tumoroid)
Protocol: as §1

ES-ZH016 = test system: ES-ZH016 (patient-derived Ewing sarcoma tumoroid)
Protocol: as §1

CDS-ZH002 direct = test system: CDS-ZH002 direct (CIC-DUX4 sarcoma cells right after isolation)
Protocol: as §1

ES-ZH009 = test system: ES-ZH009 (patient-derived Ewing sarcoma tumoroid)
Protocol: as §1

Compound | differential drug sensitivity score (CDS-ZH001) | differential drug sensitivity score (CDS-ZH001-2) | differential drug sensitivity score (ES-ZH004) | differential drug sensitivity score (CDS-ZH002) | differential drug sensitivity score (ES-ZH002) | differential drug sensitivity score (ES-ZH001) | differential drug sensitivity score (ES-ZH007) | differential drug sensitivity score (ES-ZH016 direct) | differential drug sensitivity score (CDS-ZH003) | differential drug sensitivity score (ES-ZH008) | differential drug sensitivity score (ES-ZH016) | differential drug sensitivity score (CDS-ZH002 direct) | differential drug sensitivity score (ES-ZH009)
Cn1cc(C2=C(c3ccc(Cl)cc3Cl)C(=O)NC2=O)c2ccccc21 | -1.5 | -1.5 | 2.1 | -1.5 | 5.1 | 6.9 | 0.1 | 0.4 | -6.5 | 3.8 | -1.5 | -1.5 | -1.5
C[C@H](Nc1ncnc2nc[nH]c12)c1cc2cccc(Cl)c2c(=O)n1-c1ccccc1 [Duvelisib] | 4.2 | 4.4 | -4.4 | 1.2 | 1.9 | -5.6 | -2.7 | 4.2 | -1.2 | -1.1 | 3.4 | 0.6 | 9.1
O=C1NC(=O)[C@@H](c2cn3c4c(cccc24)CCC3)[C@@H]1c1c[nH]c2ccccc12 [Tivantinib] | 2.5 | -0.2 | 1 | -3.1 | 9.4 | 9.4 | 2.7 | 2.2 | -3.8 | -1.9 | 7.4 | -1.2 | 7.7
O=C(NCc1cccc(O)c1)Nc1nc(-c2ccncc2)cs1 [RKI1447] | -0.6 | -1 | -0.2 | -1 | 6.9 | -1.2 | -1.1 | -1 | -0.9 | -1.2 | 0.4 | -1.2 | 4.8
C[C@@H]1COCCN1c1cc(-c2ccnn2C)c2ccnc(-c3ccn[nH]3)c2n1 [Elimusertib] | 7.3 | 11.3 | 9.6 | 0.9 | 10.8 | 7 | 10.1 | 12.4 | 7.8 | 11.6 | 6.4 | -5.1 | 10.9
O=C(c1ccc(Nc2nccc(-c3cc4ccccc4s3)n2)cc1)N1CCC(N2CCCC2)CC1 [IKK16] | -0.1 | 0 | -4.1 | -4 | 2.3 | -2.5 | -0.6 | 0.1 | 0.7 | 0 | -4.4 | 0.3 | 0.4
COc1cc2c(Nc3ccc(NC(=O)c4ccccc4)cc3)ncnc2cc1OCCCN1CCOCC1 | 0.8 | 2.9 | 2.2 | -2.2 | 8.1 | 4.9 | 0.4 | 6.7 | -2.2 | -2 | 1.6 | 0.1 | 7.1
Cn1cnc2c(F)c(Nc3ccc(Br)cc3Cl)c(C(=O)NOCCO)cc21 [Selumetinib] | -2 | -2 | -1.9 | -2 | -2 | -2 | -2 | -2 | 2.5 | 5.1 | -2 | -2 | -2
CO[C@H]1C[C@@H]2CC[C@@H](C)[C@@](O)(O2)C(=O)C(=O)N2CCCC[C@H]2C(=O)O[C@H]([C@H](C)C[C@@H]2CC[C@@H](O)[C@H](OC)C2)CC(=O)[C@H](C)/C=C(\C)[C@@H](O)[C@@H](OC)C(=O)[C@H](C)C[C@H](C)/C=C/C=C/C=C/1C [Sirolimus] | -10.4 | -0.4 | 14.2 | -10.4 | 17.8 | 5.7 | 7.2 | -8.7 | -6.7 | 6.7 | -0.6 | -2.2 | 2.7
CC(C)C[C@H](NC(=O)[C@H](Cc1ccccc1)NC(=O)c1cnccn1)B(O)O [Bortezomib] | 6.9 | 6 | 5.5 | 3.6 | 4.7 | 3.9 | 6.4 | -2.6 | 6 | -0.2 | -5.9 | 6.9 | 7
CN(c1ncccc1CNc1nc(Nc2ccc3c(c2)CC(=O)N3)ncc1C(F)(F)F)S(C)(=O)=O | 5.1 | 1.5 | -0.4 | -0.6 | 6 | 5 | -0.4 | -1.2 | -0.7 | -0.7 | 2.2 | 3.8 | 0.8
O=C(NCC1CCOCC1)c1cnc(Nc2ccc(Cl)cc2Cl)nc1C(F)(F)F | -0.5 | -0.5 | -0.5 | -0.5 | -0.5 | -0.5 | -0.5 | -0.5 | -0.5 | -0.5 | -0.5 | -0.5 | -0.5
Nc1ccccc1NC(=O)c1ccc(CNc2nccc(-c3cccnc3)n2)cc1 [Mocetinostat] | -3.3 | 1.5 | 8.4 | -2.7 | 2.4 | 0.8 | 2.6 | 7.8 | -9 | 7.1 | 1.4 | -0.9 | 1.8
Nc1ccn([C@@H]2O[C@H](CO)[C@@H](O)C2(F)F)c(=O)n1 [Gemcitabine] | 4.5 | 1.8 | 20.1 | -4.9 | 24.8 | 23.1 | 24.5 | 9.7 | -7 | 18.7 | 22.4 | -7 | 19.6
COc1cc(Nc2c(C#N)cnc3cc(OCCCN4CCN(C)CC4)c(OC)cc23)c(Cl)cc1Cl [Bosutinib] | 0.6 | 1.8 | -0.5 | 0.1 | -0.5 | -0.5 | -0.5 | 0.2 | -0.4 | -0.5 | 1.1 | -0.5 | 0.5
Cc1cnc(NC(=O)Nc2cc(Br)c(C)cc2OC[C@@H]2CNCCO2)cn1 [Rabusertib] | 8.8 | 7.2 | 1.2 | 1.8 | 10.7 | 6 | 8.8 | 5.6 | -4.9 | 12.5 | 8.7 | 2.4 | 6.1
c1cn2cc(-c3ccc4cn[nH]c4c3)nc(Nc3ccc(N4CCOCC4)cc3)c2n1 [Entospletinib] | -2.1 | 10.6 | -2.1 | 13.4 | -2.1 | -2.1 | -2.1 | 13.1 | 0 | -2.1 | -2.1 | -1.8 | -2.1
Cn1c(Nc2ccc(C(F)(F)F)cc2)nc2cc(Oc3ccnc(-c4ncc(C(F)(F)F)[nH]4)c3)ccc21 [RAF-265] | -2.9 | 0.9 | -2.3 | -6.1 | 6.1 | 5.1 | -0.7 | 6.4 | -2.8 | 5.2 | 1 | 3 | 9.3
CN1CCN(c2ccc(C(=O)Nc3n[nH]c4ccc(Cc5cc(F)cc(F)c5)cc34)c(NC3CCOCC3)c2)CC1 [Entrectinib] | 2 | 7.7 | 12.9 | 0.2 | 8.1 | 3 | -1.1 | 10.8 | -4.3 | 6 | 2.3 | -2.3 | 2
NC1(c2ccc(-c3nc4ccn5c(=O)[nH]nc5c4cc3-c3ccccc3)cc2)CCC1 [MK-2206] | 3.7 | 10.4 | 6.8 | -3.1 | 14 | 1.8 | 3.4 | 15.8 | -2.3 | 13.3 | 0.5 | 0.7 | 4.8
N#Cc1ccc2[nH]c(O)c(-c3ccc(CN4CCOCC4)cn3)c2c1 [AZD1080] | -0.1 | -0.1 | 0.6 | -0.1 | -0.1 | -0.1 | 0.4 | 0.2 | -0.1 | 1 | -0.1 | -0.1 | 0
CCn1c(-c2nonc2N)nc2c(C#CC(C)(C)O)ncc(OC[C@H]3CCCNC3)c21 | 5.1 | -9.5 | 10.8 | -9.5 | 13 | 0.5 | 4.4 | -1 | -9.5 | 15.5 | 1.1 | -3.1 | 5.5
CCc1c2c(nc3ccc(O)cc13)-c1cc3c(c(=O)n1C2)COC(=O)[C@]3(O)CC [SN-38] | 7 | 5.2 | 14.9 | -1 | 15.3 | 13.2 | 17.1 | 4.9 | -1.4 | 8.8 | 16.4 | -0.9 | 15.7
CC[C@@]1(O)C(=O)OCc2c1cc1n(c2=O)Cc2cc3c(CN(C)C)c(O)ccc3nc2-1 [Topotecan] | 5.3 | 3.4 | 16.4 | -2.7 | 20.1 | 19.4 | 19.4 | 7.3 | 8 | 10.8 | 19.6 | -4.9 | 15.8
CN1CC[C@H](c2c(O)cc(O)c3c(=O)cc(-c4ccccc4Cl)oc23)[C@H](O)C1 [Alvocidib] | 8.5 | 5.7 | 6.6 | 5.8 | 7.1 | 2.6 | 7.8 | 3.7 | 8 | 6.3 | 6.1 | 8.9 | 9
CC(C)n1nc(-c2cc3cc(O)ccc3[nH]2)c2c(N)ncnc21 [Torkinib] | 4.4 | 2.3 | 5.2 | -1.3 | 13.7 | 2.1 | 1.1 | -1.3 | -3.5 | 8.1 | 2.2 | -0.9 | 2
O=C(O)CNC(=O)c1c(O)c2ccccc2n(Cc2ccccc2)c1=O [IOX2] | -1.5 | -1.5 | 0.7 | -1.3 | 5.1 | 3.2 | -0.7 | -1.5 | 3.7 | 3.7 | -1.5 | 1 | -1.5
